biological target: T1, human TREM2 (Homo sapiens, UniProt Q9NZC2); assay: In vitro measurement of TREM2 activity using cellular phosphorylation of spleen tyrosine kinase (Syk), AlphaLisa, HEK293T-hTREM2 cells; type: cell-based; conditions: HEK293T cells expressing human TREM2 and DAP12, 45 min at room temperature, Table D
T1 construct: expressed in transfected cells; host or cells: HEK293T-hTREM2 cells (HEK cell line expressing human TREM2 and DAP12)
Procedure: In Vitro Measurement of Triggering Receptor Expressed on Myeloid Cells 2 Activity Using Cellular Phosphorylation of Spleen Tyrosine Kinase (“Syk”) Assays
Measurement of TREM2 agonist potency was done using a HEK cell line expressing human TREM2 and DAP12 (HEK293T-hTREM2 cells). Binding of small molecules to, and activation of, TREM2 increases the phosphorylation of Syk. The resultant levels of Syk phosphorylation are measured using a commercial AlphaLisa reagent kit. To perform the assay, HEK-hTREM2 cells were plated at 14,000 cells per well in a 384 well plate, in 25 μL of complete growth media and incubated at 37° C., 5% CO2 for 20-24 hours.
Prior to the assay, test compounds were diluted in the 384 well plates in assay buffer and allowed to equilibrate for 30 minutes. Growth media was removed from cell plates by inversion on blotting paper, and 25 μL of test articles in assay buffer was added to cells. Cells were incubated for 45 minutes at room temperature. After 45 minutes, assay buffer was removed and 10 μL of lysis buffer was added. Plates were shaken for 20 minutes at 350 RPM at room temperature. After complete lysis, AlphaLisa reagents were added to the lysate, and fluourescence intensity was measured using a Perkin Elmer Envision plate reader. Intensities were used to generate a standard curve, and % activation was calculated. Curve fitting was performed using Prism v9 software, log(agonist) vs response—variable slope (four parameters), and EC50s were calculated from the curve fit.
The results presented in Tables D and D-2 have been generated with the in vitro assay described above. This assay may be used to test any of the compounds described herein to assess and characterize a compound's ability to act as an agonist of TREM2.

T1 sequence (Q9NZC2 19-230): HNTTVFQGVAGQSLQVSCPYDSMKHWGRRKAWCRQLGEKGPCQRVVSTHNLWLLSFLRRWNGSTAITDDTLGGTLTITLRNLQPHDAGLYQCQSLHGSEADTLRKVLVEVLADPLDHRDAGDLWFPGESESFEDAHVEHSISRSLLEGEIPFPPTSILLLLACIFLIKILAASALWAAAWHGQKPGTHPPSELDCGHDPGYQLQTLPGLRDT
T1 sequence (O43914 22-113 partner): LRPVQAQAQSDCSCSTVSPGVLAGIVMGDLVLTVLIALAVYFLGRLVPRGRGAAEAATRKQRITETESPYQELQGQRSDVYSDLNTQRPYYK

Row | EC50 [nM] | Compound
1 | ≤ 50 | Cc1cc([C@H]2C[C@@H](c3nc(-c4ccc(F)cc4F)c4sc(N(C)C)nc4n3)CCO2)ccn1 [compound 116, 7-(2,4-difluorophenyl)-N,N-dimethyl-5-[(2R,4S)-2-(2-methyl-4-pyridyl)tetrahydropyran-4-yl]thiazolo[4,5-d]pyrimidin-2-amine]
2 | 50 to 500 | C[C@@H]1CN(c2nc(-c3ccc(C(F)(F)F)cc3)c3sc(N(C)C)nc3n2)C[C@H](c2cnn(C3CC3)c2)O1 [compound 117, 5-[(2S,6R)-2-(1-cyclopropyl-pyrazol-4-yl)-6-methyl-morpholin-4-yl]-N,N-dimeth-yl-7-[4-(trifluoromethyl)-phenyl]thiazolo[4,5-d]pyr-imidin-2-amine]
3 | 500 to 3000 | CC(C)Oc1nc2nc(N3C[C@@H](C)O[C@@H](c4cnn(C5CC5)c4)C3)nc(-c3ccc(C(F)(F)F)cc3F)c2s1 [compound 118, (2S,6R)-2-(1-cyclopropylpyrazol-4-yl)-4-[7-[2-fluoro-4-(trifluoromethyl)-phenyl]-2-isopropoxy-thiazolo[4,5-d]pyrimidin-5-yl]-6-methyl-morpholine]
4 | ≤ 50 | Cc1cc([C@H]2CN(c3nc(-c4ccc(F)cc4F)c4sc(N(C)C)nc4n3)C[C@@H](C)O2)ccn1 [compound 123, 7-(2,4-difluorophenyl)-N,N-dimethyl-5-[(2R,6S)-2-methyl-6-(2-methyl-4-pyridyl)morpholin-4-yl]thiazolo[4,5-d]pyrimidin-2-amine]
5 | 50 to 500 | C[C@@H]1CCCN1c1nc2nc([C@H]3CCO[C@@H](c4cnn(C5CC5)c4)C3)nc(-c3ccc(F)cc3F)c2n1C [compound 124, 6-(2,4-difluorophenyl)-7-methyl-2-[(2R,4S)-2-(1-cyclopropylpyrazol-4-yl)tetrahydropyran-4-yl]-8-[(2R)-2-methylpyrrolidin-1-yl]purine]
6 | 50 to 500 | C[C@H]1CCCN1c1nc2nc([C@H]3CCO[C@@H](c4cnn(C5CC5)c4)C3)nc(-c3ccc(F)cc3F)c2n1C [compound 125]
7 | 50 to 500 | C[C@@H]1CN(c2nc(-c3ccc(C(F)(F)F)cc3F)c3[nH]c(N(C)C)nc3n2)C[C@H](c2cnn(C3CC3)c2)O1 [compound 126, 2-((2S,6R)-2-(1-cyclopropyl-1H-pyrazol-4-yl)-6-methylmorpholino)-6-(2-fluoro-4-(trifluoromethyl)phenyl)-N,N-dimethyl-9H-purin-8-amine]
8 | 50 to 500 | Cn1c(C(F)F)nc2nc([C@H]3CCO[C@@H](c4cnn(C5CC5)c4)C3)nc(-c3ccc(C(F)(F)F)cc3F)c21 [compound 127, 2-[(2R,4S)-2-(1-cyclopropylpyrazol-4-yl)tetrahydropyran-4-yl]-8-(difluoromethyl)-6-[2-fluoro-4-(trifluoromethyl)phenyl]-7-methyl-purine]
9 | 500 to 3000 | CN(C)c1nc2c(C34CC(C(F)(F)F)(C3)C4)nc([C@H]3CCO[C@@H](c4cnn(C5CC5)c4)C3)nc2n1C [compound 128, 2-[(2R,4S)-2-(1-cyclopropylpyrazol-4-yl)tetrahydropyran-4-yl]-N,N-9-trimethyl-6-[3-(trifluoromethyl)-1-bicyclo[1.1.1]pentanyl]purin-8-amine]
10 | 500 to 3000 | CN(C)c1nc2nc([C@H]3CCO[C@@H](c4cnn(C5CC5)c4)C3)nc(C34CC(C(F)(F)F)(C3)C4)c2[nH]1 [compound 129, 2-[(2R,4S)-2-(1-cyclopropylpyrazol-4-yl)tetrahydropyran-4-yl]-N,N-dimethyl-6-[3-(trifluoromethyl)-1-bicyclo[1.1.1]pentanyl]-7H-purin-8-amine]
11 | ≤ 50 | C[C@@H]1CN(c2nc(C34CC(C(F)(F)F)(C3)C4)c3c(n2)nc(N(C)C)n3C)C[C@H](c2cnn(C3CC3)c2)O1 [compound 130, 2-[(2S,6R)-2-(1-cyclopropylpyrazol-4-yl)-6-methyl-morpholin-4-yl]-N,N,7-trimethyl-6-[3-(trifluoromethyl)-1-bicyclo[1.1.1]pentanyl]purin-8-amine]
12 | 500 to 3000 | C[C@@H]1CN(c2cc(-c3ccc(F)cc3F)n3ncnc3n2)C[C@H](c2cnn(C3CC3)c2)O1 [compound 131, (2S,6R)-2-(1-cyclopropyl-1H-pyrazol-4-yl)-4-(7-(2,4-difluorophenyl)-[1,2,4]triazolo[1,5-a]pyrimidin-5-yl)-6-methylmorpholine]
13 | 500 to 3000 | Cc1c(F)ccc(-c2cc(N3C[C@@H](C)O[C@@H](c4cnn(C5CC5)c4)C3)nc3ncnn23)c1F [compound 132, (2S,6R)-2-(1-cyclopropyl-1H-pyrazol-4-yl)-4-(7-(2,4-difluoro-3-methylphenyl)-[1,2,4]triazolo[1,5-a]pyrimidin-5-yl)-6-methylmorpholine]
14 | 50 to 500 | Cc1cn2c(-c3ccc(C(F)(F)F)cc3F)nc([C@H]3CCO[C@@H](c4cnn(C5CC5)c4)C3)cc2n1 [compound 133, 7-((2R,4S)-2-(1-cyclopropyl-1H-pyrazol-4-yl)tetrahydro-2H-pyran-4-yl)-5-(2-fluoro-4-(trifluoromethyl)phenyl)-2-methylimidazo[1,2-c]pyrimidine]
15 | 50 to 500 | Cc1cn2c(-c3ccc(Cl)cc3F)nc(N3C[C@@H](C)O[C@@H](c4cnn(C5CC5)c4)C3)cc2n1 [compound 134, (2S,6R)-4-(5-(4-chloro-2-fluorophenyl)-2-methylimidazo[1,2-c]pyrimidin-7-yl)-2-(1-cyclopropyl-1H-pyrazol-4-yl)-6-methylmorpholine]

same assay, conditions: HEK293T cells expressing human TREM2 and DAP12, 45 min at room temperature, Table D-2

Row | EC50 [nM] | Compound
16 | 3000 to 100000 | CN1Cc2c(cc(N3CCO[C@@H](c4cnn(C)c4)C3)nc2-c2ccc(Cl)cc2F)C1=O [compound 200]
17 | 500 to 3000 | Cc1cc([C@H]2CN(c3cc4c(c(-c5ccc(Cl)cc5F)n3)CN(C)C4=O)CCO2)ccn1 [compound 201]
18 | 500 to 3000 | CN1Cc2c(cc(N3CCO[C@@H](c4cnn(C)c4)C3)nc2-c2ccc(F)cc2F)C1=O [compound 202]
19 | 3000 to 100000 | Cc1cc([C@H]2CN(c3cc4c(c(-c5ccc(F)cc5F)n3)CN(C)C4=O)CCO2)ccn1 [compound 203]
20 | 50 to 500 | CCN1Cc2c(cc(N3CCO[C@@H](c4cnn(C)c4)C3)nc2-c2ccc(Cl)cc2F)C1=O [compound 204]
21 | 500 to 3000 | CC(C)N1Cc2c(cc(N3CCO[C@@H](c4cnn(C)c4)C3)nc2-c2ccc(Cl)cc2F)C1=O [compound 205]
22 | 500 to 3000 | C[C@H]1CN(c2cc3c(c(-c4ccc(Cl)cc4F)n2)CN(C)C3=O)CCO1 [compound 206]
23 | 3000 to 100000 | CN1C(=O)c2cc(-c3ccc(Cl)cc3F)nc(N3CCO[C@@H](c4cnn(C)c4)C3)c2C1(C)C [compound 207]
24 | 3000 to 100000 | CN1C(=O)c2cc(N3CCO[C@@H](c4cnn(C)c4)C3)nc(-c3ccc(Cl)cc3F)c2C1(C)C [compound 208]
25 | 3000 to 100000 | C[C@@H]1c2c(cc(N3CCO[C@@H](c4cnn(C)c4)C3)nc2-c2ccc(Cl)cc2F)C(=O)N1C [compound 209]
26 | 3000 to 100000 | CN1Cc2c(cc(-c3ccc(Cl)cc3F)nc2-c2ccc(Cl)cc2F)C1=O [compound 210]
27 | 3000 to 100000 | C[C@H]1c2c(cc(-c3ccc(Cl)cc3F)nc2-c2ccc(Cl)cc2F)C(=O)N1C [compound 211]
28 | 50 to 500 | CN1Cc2c(cc(N3CCO[C@@H](c4cnn(C5CC5)c4)C3)nc2-c2ccc(Cl)cc2F)C1=O [compound 212]
29 | 3000 to 100000 | Cc1cc([C@H]2CN(c3cc4c(c(-c5ccc(Cl)cc5F)n3)C(C)N(C)C4=O)CCO2)ccn1 (some centres unmarked) [compound 213]
30 | 3000 to 100000 | Cc1cc([C@H]2CN(c3cc4c(c(-c5ccc(Cl)cc5F)n3)[C@@H](C)N(C)C4=O)CCO2)ccn1 [compound 214]
31 | 3000 to 100000 | Cc1cc([C@H]2CN(c3cc4c(c(-c5ccc(Cl)cc5F)n3)[C@H](C)N(C)C4=O)CCO2)ccn1 [compound 215]
32 | 3000 to 100000 | CN1Cc2c(cc(N3CCO[C@@H](c4cnn(C)c4)C3)nc2C2CC(C(F)(F)F)C2)C1=O (some centres unmarked) [compound 216]
33 | 500 to 3000 | Cc1cc([C@H]2CN(c3cc4c(c(-c5ccc(Cl)cc5F)n3)CN(C)C4=O)CCO2)cnn1 [compound 217]
34 | 500 to 3000 | CN1C(=O)c2cc([C@@H]3CCO[C@H](c4cnn(C5CC5)c4)C3)nc(-c3ccc(F)cc3F)c2C1=O [compound 218]
35 | 500 to 3000 | CN1C(=O)c2cc([C@H]3CCO[C@@H](c4cnn(C5CC5)c4)C3)nc(-c3ccc(F)cc3F)c2C1=O [compound 219]
36 | 50 to 500 | C[C@@H]1CN(c2cc3c(c(C4CC(C(F)(F)F)C4)n2)CN(C)C3=O)C[C@H](c2cnn(C3CC3)c2)O1 (some centres unmarked) [compound 220]
37 | ≤ 50 | C[C@@H]1CN(c2cc3c(c(-c4ccc(C(F)(F)F)cc4F)n2)CN(C)C3=O)C[C@H](c2cnn(C3CC3)c2)O1 [compound 221]
38 | 50 to 500 | CN1Cc2c(cc(C3CCO[C@@H](c4cnn(C5CC5)c4)C3)nc2-c2ccc(C(F)(F)F)cc2F)C1=O (some centres unmarked) [compound 222]
39 | 50 to 500 | CN1Cc2c(cc([C@@H]3CCO[C@@H](c4cnn(C5CC5)c4)C3)nc2-c2ccc(C(F)(F)F)cc2F)C1=O [compound 223]
40 | 50 to 500 | CN1Cc2c(cc([C@H]3CCO[C@@H](c4cnn(C5CC5)c4)C3)nc2-c2ccc(C(F)(F)F)cc2F)C1=O [compound 224]
41 | 50 to 500 | CN1Cc2c(cc(C3CCO[C@@H](c4cnn(C5CC5)c4)C3)nc2C2CC(C(F)(F)F)C2)C1=O (some centres unmarked) [compound 225]
